According to US12344610B2, “APOL1 inhibitors and methods of use” (Maze Therapeutics, Inc., priority 2022, dated 2025):

Tested on: human immortalized podocytes inducibly expressing APOL1 G2
Experiment: APOL1 G2 podocyte cell rescue assay (Example B4)
Format: cell-based
Conditions: Homo sapiens, differentiated human podocytes, doxycycline-induced APOL1 G2, CellTiter-Glo; geometric mean of at least 2 runs; † = single run
Method in brief: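 Differentiated hTERT-immortalized podocytes (clone D10) with doxycycline-inducible C-terminally HiBiT-tagged APOL1 G2, 6,000 cells/well, treated with doxycycline plus 8-point 3-fold compound series (0.4% DMSO) for 95 h at 37 °C. Viability by CellTiter-Glo luminescence; EC50 as geometric mean of ≥2 runs, each in duplicate.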

With `CC[C@]1(O)C[C@@H](N2C(=O)CCc3cc(OCCN4CCC5(CC4)C(=O)Nc4ccc(Cl)cc45)cnc32)C1` (single isomer, unassigned) [Compound 321, 5-chloro-1′-[2-({7-oxo-8-[(cis)-3-ethyl-3-hydroxycyclobutyl]-5,6,7,8-tetrahydro-1,8-naphthyridin-3-yl}oxy)ethyl]-1,2-dihydrospiro[indole-3,4′-piperidin]-2-one] the EC50 was 7.65 nM.

`C[C@]1(O)C[C@@H](n2ncc3cc(OCCN4CCC5(CC4)C(=O)Nc4ccc(Cl)cc45)cnc32)C1` (single isomer, unassigned) [Compound 357, 5-chloro-1′-[2-({1-[(cis)-3-hydroxy-3-methylcyclobutyl]-1H-pyrazolo[3,4-b]pyridin-5-yl}oxy)ethyl]-1,2-dihydrospiro[indole-3,4′-piperidin]-2-one] showed an EC50 of 4.04 nM.

`CC1(O)CC(c2ncc(OCCN3CCC4(CC3)C(=O)Nc3ccc(Cl)cc34)cn2)C1` (single isomer, unassigned) [Compound 393, 5-chloro-1′-[2-({2-[(cis) or (trans)-3-hydroxy-3-methylcyclobutyl]pyrimidin-5-yl}oxy)ethyl]-1,2-dihydrospiro[indole-3,4′-piperidin]-2-one] was tested, and the EC50 was 23 nM.

With `C[C@]1(O)C[C@H](n2ncc3cc(OCCN4CCC5(CC4)C(=O)Nc4ccc(Cl)cc45)cnc32)C1` (single isomer, unassigned) [Compound 408, 5-chloro-1′-[2-({1-[(trans)-3-hydroxy-3-methylcyclobutyl]-1H-pyrazolo[3,4-b]pyridin-5-yl}oxy)ethyl]-1,2-dihydrospiro[indole-3,4′-piperidin]-2-one] the EC50 was 7.05 nM.

Molecule `CC(c1ncc(OCCN2CCC3(CC2)C(=O)Nc2ccc(Cl)cc23)cn1)S(C)(=O)=O` (centres unmarked) [Compound 1, 5-Chloro-1′-(2-{[2-(1-methanesulfonylethyl)pyrimidin-5-yl]oxy}ethyl)-1,2-dihydrospiro[indole-3,4′-piperidin]-2-one] has an EC50 of 18.8 nM.

Work on `CS(=O)(=O)C1(c2ncc(OCCN3CCC4(CC3)C(=O)Nc3ccc(Cl)cc34)cn2)CC1` [Compound 4, 5-chloro-1′-(2-{[2-(1-methanesulfonylcyclopropyl)pyrimidin-5-yl]oxy}ethyl)-1,2-dihydrospiro[indole-3,4′-piperidin]-2-one] yielded an EC50 of 9.16 nM.

In the case of `CC(C)[C@]1(O)C[C@@H](N2C(=O)CCc3cc(OCCN4CCC5(CC4)C(=O)Nc4ccc(Cl)cc45)cnc32)C1` [Compound 317, 5-chloro-1′-[2-({7-oxo-8-[(cis)-3-hydroxy-3-(propan-2-yl)cyclobutyl]-5,6,7,8-tetrahydro-1,8-naphthyridin-3-yl}oxy)ethyl]-1,2-dihydrospiro[indole-3,4′-piperidin]-2-one], the EC50 is reported as 2.92 nM.

`C[C@]1(O)C[C@@H](n2c(=O)ccc3cc(OCCN4CCC5(CC4)C(=O)Nc4ccc(Cl)cc45)cnc32)C1` [Compound 323, 5-chloro-1′-[2-({7-oxo-8-[(cis)-3-hydroxy-3-methylcyclobutyl]-7,8-dihydro-1,8-naphthyridin-3-yl}oxy)ethyl]-1,2-dihydrospiro[indole-3,4′-piperidin]-2-one] was tested, and the EC50 was 2.02 nM.

`CC(C)(CO)c1ncc(OCCN2CCC3(CC2)C(=O)Nc2ccc(Cl)cc23)cn1` [Compound 334, 5-chloro-1′-(2-{[2-(1-hydroxy-2-methylpropan-2-yl)pyrimidin-5-yl]oxy}ethyl)-1,2-dihydrospiro[indole-3,4′-piperidin]-2-one] gave an EC50 of 9.58 nM.

`C[C@]1(O)C[C@@H](N2C(=O)Cc3cc(OCCN4CCC5(CC4)C(=O)Nc4ccc(Cl)cc45)cnc32)C1` [Compound 345, 5-chloro-1′-[2-({2-oxo-1-[(cis)-3-hydroxy-3-methylcyclobutyl]-1H,2H,3H-pyrrolo[2,3-b]pyridin-5-yl}oxy)ethyl]-1,2-dihydrospiro[indole-3,4′-piperidin]-2-one] was tested, and the EC50 was 15.8 nM.

`C[C@]1(O)C[C@@H](N2C(=O)Cc3cc(OCCN4CCC5(CC4)C(=O)Nc4ccc(C(F)F)cc45)cnc32)C1` [Compound 346, 5-(difluoromethyl)-1′-[2-({2-oxo-1-[(cis)-3-hydroxy-3-methylcyclobutyl]-1H,2H,3H-pyrrolo[2,3-b]pyridin-5-yl]oxy)ethyl]-1,2-dihydrospiro[indole-3,4′-piperidin]-2-one] was tested, and the EC50 was 38.8 nM.

`C[C@]1(O)C[C@@H](n2ccc3cc(OCCN4CCC5(CC4)C(=O)Nc4ccc(Cl)cc45)cnc32)C1` [Compound 349, 5-chloro-1′-[2-({1-[(cis)-3-hydroxy-3-methylcyclobutyl]-1H-pyrrolo[2,3-b]pyridin-5-yl}oxy)ethyl]-1,2-dihydrospiro[indole-3,4′-piperidin]-2-one] showed an EC50 of 6.81 nM.

Work on `C[C@]1(O)C[C@@H](n2ccc3cc(OCCN4CCC5(CC4)C(=O)Nc4ccc(C(F)F)cc45)cnc32)C1` [Compound 350, 5-(difluoromethyl)-1′-[2-({1-[(cis)-3-hydroxy-3-methylcyclobutyl]-1H-pyrrolo[2,3-b]pyridin-5-yl}oxy)ethyl]-1,2-dihydrospiro[indole-3,4′-piperidin]-2-one] yielded an EC50 of 10.3 nM.

`C[C@]1(O)C[C@@H](n2cnc3cc(OCCN4CCC5(CC4)C(=O)Nc4ccc(Cl)cc45)cc(C(F)(F)F)c32)C1` [Compound 352, 5-chloro-1′-[2-({1-[(cis)-3-hydroxy-3-methylcyclobutyl]-7-(trifluoromethyl)-1H-1,3-benzodiazol-5-yl}oxy)ethyl]-1,2-dihydrospiro[indole-3,4′-piperidin]-2-one] showed an EC50 of 1.12 nM.

Work on `C[C@]1(O)C[C@@H](N2C(=O)NCc3cc(OCCN4CCC5(CC4)C(=O)Nc4ccc(Cl)cc45)cnc32)C1` [Compound 356, 5-chloro-1′-[2-({2-oxo-1-[(cis)-3-hydroxy-3-methylcyclobutyl]-1H,2H,3H,4H-pyrido[2,3-d]pyrimidin-6-yl}oxy)ethyl]-1,2-dihydrospiro[indole-3,4′-piperidin]-2-one] yielded an EC50 of 21.5 nM.

For `CC(C)(O)c1ncc(OCCN2CCC3(CC2)C(=O)Nc2ccc(Cl)cc23)cc1C(F)(F)F` [Compound 371, 5-chloro-1′-(2-{[6-(2-hydroxypropan-2-yl)-5-(trifluoromethyl)pyridin-3-yl]oxy}ethyl)-1,2-dihydrospiro[indole-3,4′-piperidin]-2-one], the EC50 was 1.1 nM.

`C[C@]1(O)C[C@@H](n2c(=O)oc3cc(OCCN4CCC5(CC4)C(=O)Nc4ccc(Cl)cc45)cnc32)C1` [Compound 394, 5-chloro-1′-[2-({2-oxo-3-[(cis)-3-hydroxy-3-methylcyclobutyl]-2H,3H-[1,3]oxazolo[4,5-b]pyridin-6-yl}oxy)ethyl]-1,2-dihydrospiro[indole-3,4′-piperidin]-2-one] was tested, and the EC50 was 16.9 nM.

With `O=C1Nc2ccc(Cl)cc2C12CCN(CCOc1cnc(N3CC4(CC(O)C4)C3)nc1)CC2` [Compound 396, 5-chloro-1′-{2-[(2-{6-hydroxy-2-azaspiro[3.3]heptan-2-yl}pyrimidin-5-yl)oxy]ethyl}-1,2-dihydrospiro[indole-3,4′-piperidin]-2-one] the EC50 was 18.6 nM.

Work on `CCC1(O)CN(c2ncc(OCCN3CCC4(CC3)C(=O)Nc3ccc(Cl)cc34)cn2)C1` [Compound 397, 5-chloro-1′-(2-{[2-(3-ethyl-3-hydroxyazetidin-1-yl)pyrinlidin-5-yl]oxy}ethyl)-1,2-dihydrospiro[indole-3,4′-piperidin]-2-one] yielded an EC50 of 14.3 nM.

In the case of `CC(CO)(c1ncc(OCCN2CCC3(CC2)C(=O)Nc2ccc(Cl)cc23)cc1C(F)(F)F)S(C)(=O)=O` (centres unmarked) [Compound 401, 5-chloro-1′-(2-{[6-(1-hydroxy-2-methanesulfonylpropan-2-yl)-5-(trifluoromethyl)pyridin-3-yl]oxy}ethyl)-1,2-dihydrospiro[indole-3,4′-piperidin]-2-one], the EC50 is reported as 4.62 nM.

For `CC(C)(O)c1ncc(OCCN2CCC3(CC2)C(=O)Nc2ccc(C#N)cc23)cc1C(F)(F)F` [Compound 411, 1′-(2-{[6-(2-hydroxypropan-2-yl)-5-(trifluoromethyl)pyridin-3-yl]oxy}ethyl)-2-oxo-1,2-dihydrospiro[indole-3,4′-piperidine]-5-carbonitrile], the EC50 was 1.45 nM.

Molecule `[2H]C([2H])(Oc1cnc2c(c1)CCC(=O)N2[C@H]1C[C@@](C)(O)C1)C([2H])([2H])N1CCC2(CC1)C(=O)Nc1ccc(Cl)cc12` [Compound 426, 5-chloro-1′-[2-({7-oxo-8-[(cis)-3-hydroxy-3-methylcyclobutyl]-5,6,7,8-tetrahydro-1,8-naphthyridin-3-yl}oxy)(1,1,2,2-^2H4)ethyl]-1,2-dihydrospiro[indole-3,4′-piperidin]-2-one] has an EC50 of 4.1 nM.

For `C[C@]1(O)C[C@@H](n2cc3cc(OCCN4CCC5(CC4)C(=O)Nc4ccc(Cl)cc45)cc(C(F)(F)F)c3n2)C1` [Compound 427, 5-chloro-1′-[2-({2-[(cis)-3-hydroxy-3-methylcyclobutyl]-7-(trifluoromethyl)-2H-indazol-5-yl}oxy)ethyl]-1,2-dihydrospiro[indole-3,4′-piperidin]-2-one], the EC50 was 1.95 nM.

Molecule `C[C@]1(O)C[C@@H](n2cc3cc(OCCN4CCC5(CC4)C(=O)Nc4ccc(C#N)cc45)cc(C(F)(F)F)c3n2)C1` [Compound 428, 2-oxo-1′-[2-({2-[(cis)-3-hydroxy-3-methylcyclobutyl]-7-(trifluoromethyl)-2H-indazol-5-yl}oxy)ethyl]-1,2-dihydrospiro[indole-3,4′-piperidine]-5-carbonitrile] has an EC50 of 12.2 nM.

`C[C@]1(O)C[C@@H](n2cnc3cc(OCCN4CCC5(CC4)C(=O)Nc4ccc(C#N)cc45)cc(C(F)(F)F)c32)C1` [Compound 433, 1′-(2-((1-((cis)-3-hydroxy-3-methylcyclobutyl)-7-(trifluoromethyl)-1H-benzo[d]imidazol-5-yl)oxy)ethyl)-2-oxospiro[indoline-3,4′-piperidine]-5-carbonitrile] was tested, and the EC50 was 2.13 nM.

`C[C@]1(O)C[C@@H](n2nnc3cc(OCCN4CCC5(CC4)C(=O)Nc4ccc(Cl)cc45)cc(C(F)(F)F)c32)C1` [Compound 434, 5-chloro-1′-[2-({1-[(cis)-3-hydroxy-3-methylcyclobutyl]-7-(trifluoromethyl)-1H-1,2,3-benzotriazol-5-yl}oxy)ethyl]-1,2-dihydrospiro[indole-3,4′-piperidin]-2-one] gave an EC50 of 1.5 nM.
